Legend:
[1] = tested on: patients suffering from discoid Lupus Erythematosus; experiment: Topical treatment of cutaneous manifestations in patients with discoid Lupus Erythematosus; assay type: in vivo, human; details: patient with Discoid Lupus Erythematosus, after 3 weeks treatment
Source text: (§1) Examples 2 to 5 concern the treatment of cutaneous manifestation in patients suffering from discoid Lupus Erythematosus or subacute Lupus Erythematosus with the topical composition of Example 1 under the control of a medical doctor of Bispebjerg Hospital, Denmark. The composition was applied to affected areas once or twice per day.
A person had been suffering from discoid Lupus Erythematosus for 18 years. Their arms were somewhat affected and the fingers were severely affected with acrocyanosis. During the years, the person had regularly been treated with strong topical steroids, but with limited effect.
During an aggravation of the disease, which especially affected the fingers, the person initiated a treatment with the emulsion according to example 1 on the fingers.
A person had been suffering from discoid Lupus Erythematosus for 6 years. The symptoms started on the chin, but had spread to most of the face.
During an aggravation of the symptoms, the subject initiated a twice daily treatment with the emulsion according to example 1.
A person had been suffering from discoid Lupus Erythematosus for 32 years. The disease was very severe with a strong affection of the arms and the back and with elements spread to other parts of the body. The person had been treated with ercoquin and strong topical corticosteroids, but with limited effect. […]

[2] = tested on: patients suffering from subacute Lupus Erythematosus; experiment: Topical treatment of cutaneous manifestations in patients with subacute Lupus Erythematosus; assay type: in vivo, human; details: patient with Sub-acute Cutaneous Lupus Erythematosus, after 8 weeks of treatment
Source text: as §1
A person had been suffering from subacute Lupus Erythematosus for 16 years. The subject was affected on large areas of the body with elements on the back, the breast and the face.
The person has previously been treated with oral prednisolone, chlorochin, thalidomide and strong topical steroids, but all with limited or no effect.
During an aggravation of the symptoms, the person initiated a twice daily treatment with the emulsion according to example 1.

[3] = tested on: Albino guinea pigs of Dunkin-Hartley strain; experiment: Skin sensitization test according to the Magnusson and Kligman method (O.E.C.D. Guideline No 406); assay type: in vivo, guinea pig
Description: Assessment of sensitising properties of R-salbutamol. Test for skin sensitization is carried out according to the Magnusson and Kligman method (J. Invest. Dermatol. 1969. 52, 268-276) and in accordance with O.E.C.D. Guideline No 406 of Jul. 17, 1992, and the test method B.6 of the 96/54 E.E.C Directive. The test item (R-salbutamol as the sulphate salt) was diluted with distilled water to prepare a concentration of 0.5% (w/v). Albino guinea pigs of Dunkin-Hartley strain were exposed to the test item after an acclimatisation period of at least five days. The Maximum Non Necrotizing Concentration (M.N.N.C.) was determined by injecting by intradermal route the following concentrations of the test item 0.25%, 0.125%, 0.0625%, 0.0312% and 0.0156% diluted in physiological saline solution. Pre-Maximum Non Irritant Concentration (pre-M.N.I.C.) was determined by application of the test item under an occlusive dressing during 24 hours, at the following concentrations: 0.5%, 0.25%, 0.125% and 0.0625% diluted in physiological saline solution. Maximum Non Irritant Concentration (M.N.I.C.) was determined by initially establishing an induction phase by intradermal injection with a physiological saline solution and by topical application of distilled water followed by a 18-day rest phase. […]

For “1-[[(1,1-Dimethylethyl)amino]methyl]-4-hydroxy-1,3-benzenedimethanol [Salbutamol]”, the “improvement of inflamed lesions” value [1] was “significant improvement” and the “remission of the cutaneous symptoms” value [2] was “complete remission”.
`CC(C)(C)NC[C@H](O)c1ccc(O)c(CO)c1` [R-salbutamol] was tested, and the “macroscopic cutaneous reactions attributable to allergy” value ([3]; challenge phase, after removal of 24 h occlusive dressing, induction with test item at 0.5%) was “No macroscopic cutaneous reactions attributable to allergy” and the “skin sensitization following topical application” value ([3]; topical application to skin) was “does not confer skin sensitization”.

From patent publication US9907765B2, “Treatment of connective tissue diseases of the skin” (Cipher Pharmaceuticals, Inc., priority 2005, dated 2018)
